Measured values taken from ChEMBL document CHEMBL1133984, “Synthesis, topoisomerase I inhibition and antitumor cytotoxicity of 2,2':6',2"-, 2,2':6',3"- and 2,2':6',4"-terpyridine derivatives” (2001).
Values after ≈ are worked out from the molar mass of the structure shown.

How the values were obtained:
Assay type in all cases: functional
Details in all cases: Homo sapiens
A498 = experiment: Antitumor cytotoxic activity against A-498 cell line was determined
A549 = experiment: Antitumor cytotoxic activity against A-549 cell line was determined
HCT-15 = experiment: Antitumor cytotoxic activity against HCT-15 cell line was determined
HT-29 = experiment: Antitumor cytotoxic activity against HT-29 cell line was determined
PC-3 = experiment: Antitumor cytotoxic activity against PC-3 cell line was determined
RPTEC = experiment: Antitumor cytotoxic activity against RPTEC cell line was determined
SK-OV-3 = experiment: Antitumor cytotoxic activity against SK-OV-3 cell line was determined
SK-MEL-2 = experiment: Antitumor cytotoxic activity against SK-MEL-2 cell line was determined

SMILES | GI50 (A498) [ng/mL] | GI50 (A549) [ng/mL] | GI50 (HCT-15) [ng/mL] | GI50 (HT-29) [ng/mL] | GI50 (PC-3) [ng/mL] | GI50 (RPTEC) [ng/mL] | GI50 (SK-OV-3) [ng/mL] | GI50 (SK-MEL-2) [ng/mL]
c1ccc(-c2cc(-c3ccccn3)nc(-c3ccccn3)c2)cc1 | 2.5 (≈ 0.00808 µM) | 560 (≈ 1.81 µM) | 370 (≈ 1.2 µM) | 1.4 (≈ 0.00453 µM) | 17 (≈ 0.055 µM) | 27 (≈ 0.0873 µM) | 120 (≈ 0.388 µM) | 7500 (≈ 24.2 µM)
c1ccc(-c2cc(-c3ccco3)cc(-c3ccccn3)n2)nc1 | 0.064 (≈ 0.000214 µM) | 220 (≈ 0.735 µM) | 100 (≈ 0.334 µM) | 2.4 (≈ 0.00802 µM) | 2.5 (≈ 0.00835 µM) | 4.1 (≈ 0.0137 µM) | 130 (≈ 0.434 µM) | 9900 (≈ 33.1 µM)
c1ccc(-c2cc(-c3ccsc3)cc(-c3ccccn3)n2)nc1 | 0.097 (≈ 0.000308 µM) | 620 (≈ 1.97 µM) | 290 (≈ 0.919 µM) | 2.7 (≈ 0.00856 µM) | 1.7 (≈ 0.00539 µM) | 4.7 (≈ 0.0149 µM) | 100 (≈ 0.317 µM) | 890 (≈ 2.82 µM)
c1ccc(-c2cc(-c3cccs3)cc(-c3cccnc3)n2)nc1 | 2.9 (≈ 0.00919 µM) | 78900 (≈ 250 µM) | 56100 (≈ 178 µM) | 190 (≈ 0.602 µM) | 31 (≈ 0.0983 µM) | 56 (≈ 0.178 µM) | 52000 (≈ 165 µM) | 77700 (≈ 246 µM)
c1ccc(-c2cc(-c3cccs3)cc(-c3ccncc3)n2)nc1 | 840 (≈ 2.66 µM) | 36200 (≈ 115 µM) | 15100 (≈ 47.9 µM) | 520 (≈ 1.65 µM) | 220 (≈ 0.698 µM) | 650 (≈ 2.06 µM) | 48300 (≈ 153 µM) | 35200 (≈ 112 µM)
c1ccc(-c2cc(-c3cccnc3)nc(-c3ccccn3)c2)cc1 | 74 (≈ 0.239 µM) | 44800 (≈ 145 µM) | 40900 (≈ 132 µM) | 330 (≈ 1.07 µM) | 280 (≈ 0.905 µM) | 360 (≈ 1.16 µM) | 49600 (≈ 160 µM) | 89200 (≈ 288 µM)
c1ccc(-c2cc(-c3ccsc3)cc(-c3cccnc3)n2)nc1 | 640 (≈ 2.03 µM) | > 100000 | > 100000 | 360 (≈ 1.14 µM) | 54 (≈ 0.171 µM) | 310 (≈ 0.983 µM) | > 100000 | > 100000
c1ccc(-c2cc(-c3ccoc3)cc(-c3ccccn3)n2)nc1 | 0.032 (≈ 0.000107 µM) | 80 (≈ 0.267 µM) | 60 (≈ 0.2 µM) | 2.6 (≈ 0.00869 µM) | 4.4 (≈ 0.0147 µM) | 5.8 (≈ 0.0194 µM) | 600 (≈ 2 µM) | 330 (≈ 1.1 µM)
COc1cccc2c1C(=O)c1c(O)c3c(c(O)c1C2=O)C[C@@](O)(C(=O)CO)C[C@@H]3O[C@H]1C[C@H](N)[C@H](O)[C@H](C)O1 [DOXORUBICIN] | 6.4 (≈ 0.0118 µM) | 92 (≈ 0.169 µM) | 71 (≈ 0.131 µM) | 4.6 (≈ 0.00846 µM) | 29 (≈ 0.0534 µM) | 72 (≈ 0.132 µM) | 73 (≈ 0.134 µM) | 59 (≈ 0.109 µM)
c1ccc(-c2cccc(-c3ccccn3)n2)nc1 [TERPYRIDINE] | 0.097 (≈ 0.000416 µM) | 90 (≈ 0.386 µM) | 71 (≈ 0.304 µM) | 2.6 (≈ 0.0111 µM) | 0.73 (≈ 0.00313 µM) | 14 (≈ 0.06 µM) | 72 (≈ 0.309 µM) | 100 (≈ 0.429 µM)
